“Also recorded” adds a separate entry of the source. Where two headings read alike, the source gives them in different places.
Key:
[1] = molecular target: T1, PYL2 receptor-HAB1 protein phosphatase complex (Arabidopsis thaliana, UniProt O80992); test: AlphaScreen assay: promotion of PYL2 receptor binding to PP2C protein phosphatase HAB1; settings: 6×His-SUMO-tagged PYL2 (aa 14-188), Biotin-tagged HAB1 (aa 172-511), 100 nM each, pH 7.4, 1.5 h room temperature
T1 construct: made in house; host or cells: E. coli BL21 (DE3)
T1 sequence (O80992 14-188): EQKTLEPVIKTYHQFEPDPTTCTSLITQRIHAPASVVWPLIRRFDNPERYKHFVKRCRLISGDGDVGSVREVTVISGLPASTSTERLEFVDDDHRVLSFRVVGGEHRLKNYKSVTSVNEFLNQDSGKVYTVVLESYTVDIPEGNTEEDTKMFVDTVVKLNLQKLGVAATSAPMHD
T1 sequence (Q9CAJ0 172-511 partner limits assumed): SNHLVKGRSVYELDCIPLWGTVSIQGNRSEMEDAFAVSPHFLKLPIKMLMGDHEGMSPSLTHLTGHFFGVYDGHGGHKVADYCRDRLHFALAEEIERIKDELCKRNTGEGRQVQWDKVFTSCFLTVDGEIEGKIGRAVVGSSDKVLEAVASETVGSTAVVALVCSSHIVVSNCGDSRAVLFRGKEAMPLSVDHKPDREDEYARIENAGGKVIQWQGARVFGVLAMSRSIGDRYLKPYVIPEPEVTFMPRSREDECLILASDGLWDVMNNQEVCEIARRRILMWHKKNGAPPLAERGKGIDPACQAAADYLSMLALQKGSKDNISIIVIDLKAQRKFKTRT
Description: The construction method of recombinant plasmids for the Arabidopsis thaliana genes PYL1 (amino acid sequence 36-211), PYL2 (amino acid sequence 14-188) with dual tags of 6×His and SUMO sequence and the Arabidopsis thaliana gene HAB1 (amino acid sequence 172-511) with the Biotin tag sequence is described in detail in “A gate-latch-lock mechanism for hormone signaling by abscisic acid receptors” (Nature, Vol 462, 2009). The construction method of recombinant plasmids for PYR1 and PYL7 (whole gene coding sequence) and Soybean GmPYL6 and rice OsPYL2 with dual tags of 6×His and SUMO sequence is the same as that for Arabidopsis PYL2.
The above recombinant plasmid is transformed into competent cell of E. coli BL21 (DE3) (purchased from NEB company), and inoculated into 200 ml of LB liquid medium containing Amp resistance (purchased from OXOID company) and cultured overnight at 37° C. at 200 rpm; and inoculated into 2 L of LB liquid medium containing Amp resistance at a ratio of 1:50-1:100 for an extended culture, and cultured at 37° C., 200 rpm for 3-4 hours, and at a low temperature of 16° C. until OD600 is about 0.8-1.0. Recombinant plasmids for PYR1/PYL1/PYL2/PYL7/GmPYL6/OsPYL2 with dual tags of 6×His and SUMO sequence were induced overnight with 100 μM of IPTG while HAB1 recombinant plasmid with the Biotin tag sequence was induced simultaneously with 100 μM of IPTG and 40 μM of biotin.
After 16 hours of induction, the bacterial solution was centrifuged at 4000 rpm for 20 minutes at 4° C. in a low-speed high-capacity centrifuge, and the bacteria cells were collected. Bacteria cells were resuspended in 50 ml of extraction buffer (containing 20 mM Tris, pH 8.0, 200 mM NaCl and 10% (v/v) glycerol) for per 2 L of bacterial solution and then subjected to pressure-breaking at […] and 4° C. for 3-5 times. The broken cells were subjected to ultracentrifugation, centrifuged at 16000 rpm for 30 minutes, and this process was repeated twice. The supernatant was collected and subjected to an affinity chromatography column.
For PYR/PYL proteins with dual tags of 6×His and SUMO sequences, 50 ml of affinity chromatography Ni column (50 ml Ni-NTA column, available from GE) was used. Firstly, the column was equilibrated with 600 ml of 10% buffer B (containing 20 mM Tris, PH 8.0, 200 mM NaCl, 500 mM imidazole and 10% glycerol), and then eluted with 200 ml of 50% buffer B and finally eluted with 100 ml of 100% buffer B. Proteins for crystal analysis were mixed with ulp1 enzyme at a molar ratio of 1000:1 for enzymatic dialysis overnight. The digested proteins were subjected to affinity chromatography on a Ni column once more. The collected solution was subjected to a HiLoad 26/60 Superdex200 gel filtration column (commercially available from GE) and eluted with an elution solution (containing 25 mM Tris, pH 8.0, 200 mM ammonium acetate, 1 mM dithiotreitol and 1 mM EDTA) to further separate and purify the protein.
For a HAB1 protein with a Biotin tag sequence, it was subjected to a 50 ml MBP affinity column (available from GE). The column was firstly equilibrated with 600 ml of 10% buffer C (containing 20 mM Tris, pH 8.0, 200 mM NaCl, 10 mM Maltose and 10% Glycerol), and eluted with 200 ml of 50% buffer C and finally eluted with 100 ml of 100% buffer C. The collection solution was subjected to a HiLoad 26/60 Superdex200 gel filtration column and eluted with an elution solution (containing 20 mM Tris, pH 8.0, 200 mM NaCl and 10% Glycerol) to further separate and purify the protein. […]

[2] = test system: Arabidopsis aba2-1; test: Leaf transpiration experiment (leaf temperature by thermal imager), Arabidopsis; type: in vivo, Arabidopsis thaliana; settings: for inhibitory effect on leaf transpiration compared with ABA: Arabidopsis aba2-1, spray; for duration of the leaf temperature increase: FIG. 4a, 4c
Description: ABA synthesis mutant aba2-1 was used in Arabidopsis leaf transpiration experiment. […] Therefore, this mutant is used to exclude the effect of endogenous ABA on the transpiration experiment. The plants were sprayed with a solution containing 0.05% tween-20 and corresponding concentrations of (+)-ABA/0224/0304/0706/0715/0428 or 0.05% Tween-20 and 0.05% DMSO (control) after three weeks of continuous watering with an amount of 1.2 ml/pot. Leaf transpiration experiments of soybeans were conducted at 26° C. with long-day lighting and soybeans were sprayed with a solution containing 0.1% tween-20 and 20 μM (+)-ABA/0224/0304 compound or 0.1% Tween-20 and 0.05% DMSO (control) 14 days after sowing with an amount of 4 ml/pot; the leaf transpiration experiments of cottons were sprayed with a solution containing 0.1% tween-20 and 20 μM (+)-ABA/0224 compound or 0.1% Tween-20 and 0.05% DMSO, respectively, 25 days after sowing with an amount of 4 ml/pot; the leaf transpiration experiments of wheats were sprayed with a solution containing 0.1% tween-20 and 100 μM (+)-ABA/0224 compound or 0.1% Tween-20 and 0.05% DMSO (control) 18 days after sowing with an amount of 6 ml/pot. Images were taken daily using the FLIR A655sc thermal imager at the same time before and after spraying.
In this experiment, the temperature change of leaf surface was observed and recorded by an infrared camera, thus reflecting the strength of plant transpiration. The stronger the transpiration, the lower the leaf temperature.

[3] = 5 μM spray, after spraying, FIG. 4a-4c
[4] = 5 μM spray, four days after spraying

SMILES | EC50 ([1]; FIG. 2c, read-out: EC50) [nM] | leaf temperature versus DMSO control (leaf transpiration) [2, 3] | leaf temperature versus DMSO control (leaf transpiration) [2, 4] | inhibitory effect on leaf transpiration compared with ABA [2] | EC50 ([1]; FIG. 2e, read-out: EC50) [nM] | duration of the leaf temperature increase ([2]; 5 μM spray) | also measured
CCCN1C(=O)OC(C)(C)c2cc(NS(=O)(=O)Cc3c(F)c(F)c(C)c(F)c3F)ccc21 [Compound 0304] | 59.3 | significantly increased compared to that with control (DMSO) treatment; also recorded: the leaf temperature was higher than that in the DMSO control group | still significantly higher than that in the DMSO control | better than that of ABA | – | – | –
CCCN1C(=O)OCc2cc(NS(=O)(=O)Cc3c(F)c(F)c(C)c(F)c3F)ccc21 [Compound 0428] | – | – | – | – | – | – | EC50 ([1]; FIG. 2f, read-out: EC50): 19.3 nM; leaf temperature versus DMSO control (leaf transpiration) ([2]; 5 μM/2 μM/1 μM, treated for one day, FIG. 4d): significantly increased compared to that with DMSO treatment; also recorded: higher than that in the DMSO control group
Cc1c(F)c(F)c(CS(=O)(=O)Nc2ccc3c(c2)C(C)OC(=O)N3CCCF)c(F)c1F (stereo not shown) [Compound 0715] | – | significantly increased compared to that with control (DMSO) treatment; also recorded: significantly increased compared to the control (DMSO) treatment | – | – | 99.5 | equivalent to that of 0224 | –
CCN1C(=O)OC(C)c2cc(NS(=O)(=O)Cc3c(F)c(F)c(C)c(F)c3F)ccc21 (stereo not shown) [Compound 0706] | – | significantly increased compared to that with control (DMSO) treatment; also recorded: significantly increased compared to the control (DMSO) treatment | – | – | 101 | equivalent to that of 0224 | –
CCCN1C(=O)OC(C)c2cc(NS(=O)(=O)Cc3c(F)c(F)c(C)c(F)c3F)ccc21 (stereo not shown) [Compound 0224] | 29.6 | significantly increased compared to that with control (DMSO) treatment; also recorded: the leaf temperature was higher than that in the DMSO control group | still significantly higher than that in the DMSO control | better than that of ABA | 92.1 | longer | leaf temperature versus DMSO control (leaf transpiration) ([2]; 2 μM or 1 μM spray, four days after spraying, FIG. 4b): still significantly increased compared to that with control (DMSO) treatment; also recorded: still significantly higher than that in the DMSO control
CC1=CC(=O)CC(C)(C)[C@@]1(O)/C=C/C(C)=C\C(=O)O [ABA, Abscisic Acid, reference compound] | – | significantly increased compared to that with control (DMSO) treatment; also recorded: the leaf temperature was higher than that in the DMSO control group | had dropped to the level before spraying | – | – | – | EC50 ([1]; EC50, FIG. 2c): 866 nM; EC50 ([1]; EC50, FIG. 2e): 4960 nM; EC50 ([1]; EC50, FIG. 2f): 148 nM; EC50 ([1]; EC50, FIG. 2g): 3570 nM
